# Experimental data as given in US4528289A, “Corynantheine derivates, processes for their preparation, and their use” (Dr. Willmar Schwabe GmbH & Co., priority 1982, dated 1985).
# Legend:
# [1] = tested on: systolic blood pressure of spontaneously hypertonic rats; assay: systolic blood pressure of spontaneously hypertonic rats after oral administration; type: in vivo, rat; conditions: 2 h, dihydrocorynantheine
# From the text: (§1) The blood pressure-lowering action of the compound THCN according to the present invention and of DHCN was investigated on spontaneously hypertonic rats after oral administration and compared with that of ajmalicine. The method thereby used for the measurement of the systolic blood pressure and of the heart rate on rats is described in Arzneimittel-Forschung, 18, 1285-1287/1968. Before commencement of the experiments, the animals were familiarised with the measurement procedure.
# (§2) In a first series of experiments, the systolic blood pressure and the heart rate were investigated 2 hours after the oral administration of the test substances in the form of their hydrochlorides. The substances were suspended in 0.2% agar and administered in a volume of 10 ml./kg. It follows therefrom that all three substances lower the blood pressure in a dosage-dependent manner.
# [2] = tested on: heart rate of spontaneously hypertonic rats; assay: heart rate of spontaneously hypertonic rats after oral administration; type: in vivo, rat; conditions: 2 h, dihydrocorynantheine
# From the text: as §1, §2
# [3] = tested on: systolic blood pressure of spontaneously hypertonic rats; assay: chronological course of blood pressure decrease in spontaneously hypertonic rats; type: in vivo, rat; conditions: for percentage decrease of blood pressure: 10 mg/kg p.o.
# From the text: as §1
# (§3) In a further series of experiments, the chronological course of the blood pressure lowering was investigated. For this purpose, spontaneously hypertonic rats were treated with 10 mg./kg. DHCN and with 5 or 10 mg./kg. THCN per os and in each case 6 or 12 animals of the treated group were measured at definite times after the treatment.
# [4] = tested on: heart rate of spontaneously hypertonic rats; assay: chronological course of heart rate of spontaneously hypertonic rats; type: in vivo, rat; design: heart rate at time t: unit not given here; conditions: for heart rate at time t: 10 mg/kg p.o.
# From the text: as §1, §3
# CHCl3 arrhythmia = assay: inhibition of CHCl3 arrhythmia on mice, i.p.; type: in vivo
# From the text: The antiarrhythmic effectiveness of DHCN and THCN was investigated on mice and rats.
# [5] = acute toxicity, LD50 (Litchfield and Wilcoxon) on mice; type: in vivo; conditions: mouse, in vivo, mice
# From the text: (§4) The toxicity of the compounds according to the present invention can be seen from the LD50 values given in the following Table 8 for intravenous, intraperitoneal and oral administration.
# mice = assay: as above; type: in vivo; conditions: i.v., i.p. and oral LD50, mice
# From the text: as §4
# [6] = tested on: stereotypy brought about by apomorphine; assay: potentiation of apomorphine stereotypy in mice; type: in vivo; conditions: oral, same dosage range (10 to 20 mg/kg)
# [7] = tested on: blood pressure, vessels, central nervous system; assay: general pharmacological action (statement in words); conditions: in vivo
compound,measurement,setting,value
"CC[C@H]1CN2CCc3c([nH]c4ccccc34)[C@@H]2C[C@@H]1/C(=C\OC)C(=O)OC [DHCN, dihydrocorynantheine]","systolic blood pressure, subsequent value",[1]; 4 mg/kg p.o.,187 ± 6 mm Hg
same,"systolic blood pressure, Δ",[1]; 4 mg/kg p.o.,-12.7 ± 7 mm Hg
same,"systolic blood pressure, Δ %",[1]; 4 mg/kg p.o.,-5.8 ± 3.3%
same,"systolic blood pressure, subsequent value",[1]; 8.6 mg/kg p.o.,187 ± 5 mm Hg
same,"systolic blood pressure, Δ",[1]; 8.6 mg/kg p.o.,-13 ± 9 mm Hg
same,"systolic blood pressure, Δ %",[1]; 8.6 mg/kg p.o.,-6.2 ± 4.0%
same,"systolic blood pressure, subsequent value",[1]; 18 mg/kg p.o.,181 ± 3 mm Hg
same,"systolic blood pressure, Δ",[1]; 18 mg/kg p.o.,-21 ± 5 mm Hg
same,"systolic blood pressure, Δ %",[1]; 18 mg/kg p.o.,-10.1 ± 2.1%
same,"systolic blood pressure, subsequent value",[1]; 32 mg/kg p.o.,175 ± 10 mm Hg
same,"systolic blood pressure, Δ",[1]; 32 mg/kg p.o.,-29 ± 8 mm Hg
same,"systolic blood pressure, Δ %",[1]; 32 mg/kg p.o.,-14.6 ± 4.1%
same,"systolic blood pressure, subsequent value",[1]; 56 mg/kg p.o.,152 ± 6 mm Hg
same,"systolic blood pressure, Δ",[1]; 56 mg/kg p.o.,-41 ± 5 mm Hg
same,"systolic blood pressure, Δ %",[1]; 56 mg/kg p.o.,-21.4 ± 2.7%
same,"heart rate, subsequent value",[2]; 4 mg/kg p.o.,485 ± 14 beats/min.
same,"heart rate, Δ",[2]; 4 mg/kg p.o.,6 ± 20 beats/min.
same,"heart rate, Δ %",[2]; 4 mg/kg p.o.,1.5 ± 4.2%
same,"heart rate, subsequent value",[2]; 8.6 mg/kg p.o.,442 ± 19 beats/min.
same,"heart rate, Δ",[2]; 8.6 mg/kg p.o.,-30 ± 18 beats/min.
same,"heart rate, Δ %",[2]; 8.6 mg/kg p.o.,-6.2 ± 3.7%
same,"heart rate, subsequent value",[2]; 18 mg/kg p.o.,492 ± 12 beats/min.
same,"heart rate, Δ %",[2]; 18 mg/kg p.o.,-0.6 ± 2.9%
same,"heart rate, subsequent value",[2]; 32 mg/kg p.o.,477 ± 5 beats/min.
same,"heart rate, Δ",[2]; 32 mg/kg p.o.,-16 ± 11 beats/min.
same,"heart rate, Δ %",[2]; 32 mg/kg p.o.,-3.1 ± 2.2%
same,"heart rate, subsequent value",[2]; 56 mg/kg p.o.,502 ± 14 beats/min.
same,"heart rate, Δ",[2]; 56 mg/kg p.o.,3 ± 21 beats/min.
same,"heart rate, Δ %",[2]; 56 mg/kg p.o.,2.9%
same,percentage decrease of blood pressure,[3]; 10 min.,10.6%
same,percentage decrease of blood pressure,[3]; 20 min.,14.5%
same,percentage decrease of blood pressure,[3]; 40 min.,14.5%
same,percentage decrease of blood pressure,[3]; 80 min.,6.1%
same,percentage decrease of blood pressure,[3]; 2 h.,3.7%
same,percentage decrease of blood pressure,[3]; 4 h.,0.8%
same,percentage decrease of blood pressure,[3]; 6 h.,1.4%
same,blood pressure lowering action compared (in words),[3]; DHCN 10 mg/kg vs THCN 5 mg/kg p.o.,the same action
same,time of maximum blood pressure lowering,"[3]; DHCN 10 mg/kg, THCN 5 mg/kg p.o.",about 40 minutes
same,blood pressure after the maximum (in words),"[3]; DHCN 10 mg/kg, THCN 5 mg/kg p.o., after about 40 minutes",the blood pressure again increases to the initial value
same,heart rate at time t,[4]; 10 min.,504
same,heart rate at time t,[4]; 20 min.,515
same,heart rate at time t,[4]; 40 min.,500
same,heart rate at time t,[4]; 80 min.,516
same,heart rate at time t,[4]; 2 h.,521
same,heart rate at time t,[4]; 4 h.,517
same,heart rate at time t,[4]; 6 h.,507
same,heart rate change (in words),"[4]; DHCN 10 mg/kg, THCN 10 mg/kg, on the border of statistical significance",an increase is to be observed
same,inhibition in % of CHCl3 arrhythmia,CHCl3 arrhythmia; 10 mg/kg,0%
same,inhibition in % of CHCl3 arrhythmia,CHCl3 arrhythmia; 15 mg/kg,10%
same,inhibition in % of CHCl3 arrhythmia,CHCl3 arrhythmia; 25 mg/kg,80%
same,LD50,[5]; ip,98 mg/kg
same,LD50,[5]; iv,13 mg/kg
same,LD50,[5]; po,210 mg/kg
same,toxicities compared (in words),mice,almost the same
same,properties influencing the central nervous system (in words),[6],no properties influencing the central nervous system
same,period and strength of activity compared with ajmalicine (in words),[7],greater than those of the known comparison compound ajmalicine
